What is called TGI is the concentration at which net growth stops.

Results on eight compounds are retold here after PubChem BioAssay (NCI).

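In this assay, cells in 96-well plates receive the compound at five concentrations for 48 hours. Endpoints are linearly interpolated between the surrounding concentrations. At the TGI there is no net growth.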 *1 amine or outer side, *2 acyl side, *3 side chain or, on linkers, in order; H or OH if unused. Where a SMILES comes first, the peptide text is derived from it. The star is where a group is joined. γGlu = O=C(O)[CH](CCC(=O)[*:2])N[*:1]; NHOH = ON*

Some test systems named below: 786-0 renal; ACHN renal; EKVX NSCLC; HCT-15 colon; MDA-MB-231 breast; NCI-H226 lung; OVCAR-3 ovarian; RPMI-8226 leukemia; RXF 393 renal; SF-268 CNS; SF-295 CNS; SK-MEL-5 melanoma; SNB-19 CNS; UACC-257 melanoma; UACC-62 melanoma; HOP-62 NSCLC; HOP-92 NSCLC; SW-620 colon; SR leukemia.
Holding throughout (test): DTP human tumour cell line panel, 48 h

On to `Cc1ccc(S(=O)(=O)Oc2nc3nc4ccccc4nc3nc2OS(=O)(=O)c2ccc(C)cc2)cc1`, for which the TGI in the assay on 786-0 renal, in the assay on ACHN renal, in the assay on EKVX NSCLC, in the assay with HCT-15 colon, in the assay with MDA-MB-231 breast and in the assay on NCI-H226 lung was over 100 µM throughout. In addition, the TGI in the assay with OVCAR-3 ovarian, with RPMI-8226 leukemia, with RXF 393 renal, in the assay on SF-268 CNS, in the assay on SF-295 CNS and with SK-MEL-5 melanoma was over 100 µM throughout. Further, the TGI with SNB-19 CNS, in the assay on UACC-257 melanoma and in the assay on UACC-62 melanoma was over 100 µM each time.
In the case of `COc1ccc(Nc2nc3ccc(C(F)(F)F)cc3nc2C(=O)O)cc1`, the TGI in the assay with 786-0 renal is over 100 µM; with EKVX NSCLC it was over 100 µM; in the assay with HCT-15 colon, over 100 µM; in the assay on HOP-62 NSCLC, over 100 µM; in the assay with HOP-92 NSCLC, 92 µM; with MDA-MB-231 breast, over 100 µM. For the same compound, the TGI in the assay with NCI-H226 lung is over 100 µM; in the assay on OVCAR-3 ovarian it was 47.4 µM; with RPMI-8226 leukemia, 66.5 µM; in the assay with RXF 393 renal it was 62.6 µM; with SF-268 CNS, over 100 µM; in the assay with SF-295 CNS, 89.4 µM. Moreover, the TGI was over 100 µM with SK-MEL-5 melanoma, over 100 µM in the assay with SW-620 colon, 96.7 µM in the assay with UACC-257 melanoma and 67.3 µM in the assay with UACC-62 melanoma.
As for `CSc1nc(Br)nc2ncn(C3CC(Oc4ccc(C)cc4)C(COc4ccc(C)cc4)O3)c12` (stereo not given), the TGI in the assay on 786-0 renal, in the assay on ACHN renal, in the assay on EKVX NSCLC, in the assay with HCT-15 colon, in the assay on HOP-62 NSCLC and with HOP-92 NSCLC was over 100 µM throughout. Moreover, the TGI in the assay with MDA-MB-231 breast, with NCI-H226 lung, with OVCAR-3 ovarian, in the assay with RPMI-8226 leukemia, in the assay with SF-268 CNS and with SF-295 CNS was over 100 µM in each case. Also, the TGI in the assay on SK-MEL-5 melanoma, in the assay with SNB-19 CNS, in the assay on SW-620 colon, in the assay on UACC-257 melanoma and with UACC-62 melanoma was over 100 µM in each case.
For the compound `Cc1cc2cc3ccccc3cc2c(=O)[nH]1`, the TGI in the assay with 786-0 renal, in the assay on ACHN renal, with EKVX NSCLC, in the assay on HOP-92 NSCLC, in the assay on NCI-H226 lung and with OVCAR-3 ovarian was over 10 µM each time. For the same compound, the TGI with RXF 393 renal, in the assay with SF-268 CNS, in the assay on SF-295 CNS, with SNB-19 CNS, in the assay with SR leukemia and in the assay on SW-620 colon was over 10 µM in each case. The TGI with UACC-257 melanoma and in the assay on UACC-62 melanoma was over 10 µM in each case.
Turning to `CC(=O)OCC1OC(Oc2cc(C)c(O)cc2C/C=C(\C)CC/C=C(\C)C[C@@H](C=C(C)C)OC(C)=O)C(O)C(OC(C)=O)C1OC(C)=O` (stereo not given in full), the TGI in the assay with 786-0 renal, in the assay on ACHN renal, in the assay with EKVX NSCLC, in the assay with HCT-15 colon, in the assay on HOP-62 NSCLC and in the assay with HOP-92 NSCLC was over 50 µM each time. The TGI with MDA-MB-231 breast was over 50 µM; in the assay on OVCAR-3 ovarian, over 50 µM; in the assay with RPMI-8226 leukemia it was 24.1 µM; in the assay on RXF 393 renal, 34.4 µM; in the assay on SF-268 CNS, over 50 µM; in the assay on SF-295 CNS, over 50 µM. The TGI in the assay with SK-MEL-5 melanoma was 18.7 µM; in the assay with SNB-19 CNS, over 50 µM; in the assay with SW-620 colon, over 50 µM; with UACC-257 melanoma it was 39.8 µM; in the assay on UACC-62 melanoma, over 50 µM.
As for `N#C/C(C(=O)Nc1ccc(Cl)cc1)=C(/N)N1CCOCC1`, the TGI in the assay on 786-0 renal, in the assay on ACHN renal, in the assay on EKVX NSCLC, in the assay with HCT-15 colon, with HOP-62 NSCLC and in the assay with HOP-92 NSCLC was over 100 µM in each case. The TGI with NCI-H226 lung, in the assay on OVCAR-3 ovarian, in the assay on RPMI-8226 leukemia, in the assay with SF-295 CNS, in the assay on SK-MEL-5 melanoma and in the assay with SNB-19 CNS was over 100 µM in each case. Also, the TGI in the assay with SR leukemia, in the assay with SW-620 colon, in the assay with UACC-257 melanoma and with UACC-62 melanoma was over 100 µM in each case.
`COC1=CC(=O)C2C(C1=O)C(c1ccc(Cl)cc1)[C@@H]2C` (stereo not given in full): the TGI in the assay on 786-0 renal is 57.2 µM; with ACHN renal it was 31.9 µM; in the assay on EKVX NSCLC it was 71.4 µM; in the assay with HCT-15 colon, 31.9 µM; in the assay with HOP-62 NSCLC, over 100 µM; in the assay with HOP-92 NSCLC it was 54.8 µM. Besides, the TGI was 81.8 µM with NCI-H226 lung; over 100 µM with OVCAR-3 ovarian; over 100 µM with RPMI-8226 leukemia; 79.1 µM in the assay on RXF 393 renal; 92.7 µM in the assay on SF-268 CNS; over 100 µM in the assay with SF-295 CNS. For the same compound, the total growth inhibition concentration (TGI) is 41.2 µM in the assay on SK-MEL-5 melanoma; 80.3 µM with SNB-19 CNS; 74.9 µM with SW-620 colon; over 100 µM with UACC-257 melanoma; 63 µM with UACC-62 melanoma.
Consider `CCOC(=O)CNC(=O)C(CCC(=O)NO)NC(=O)CCC(N)C(=O)O` (stereo not given) (γGlu-Glu(NHOH)-Gly-OEt; configuration not given here), for which the TGI in the assay with 786-0 renal, in the assay on ACHN renal, in the assay with EKVX NSCLC, with HCT-15 colon, in the assay with HOP-62 NSCLC and in the assay on HOP-92 NSCLC was over 100 µM each time. The TGI in the assay with MDA-MB-231 breast, in the assay on NCI-H226 lung, in the assay on OVCAR-3 ovarian, in the assay on RPMI-8226 leukemia, in the assay on RXF 393 renal and in the assay on SF-268 CNS was over 100 µM each time. The TGI in the assay with SF-295 CNS, with SK-MEL-5 melanoma, in the assay on SNB-19 CNS, in the assay on SW-620 colon, in the assay with UACC-257 melanoma and in the assay with UACC-62 melanoma was over 100 µM each time.
